Measurements from patent US5362856A, “Monooxygenase-like activity of heme proteins” (University of Toronto Innovations Foundation, priority 1993, dated 1994).

B1: myoglobin (protein, UniProt P68082 2-154, looked up)
Myoglobin: GLSDGEWQQVLNVWGKVEADIAGHGQEVLIRLFTGHPETLEKFDKFKHLKTEAEMKASEDLKKHGTVVLTALGGILKKKGHHEAELKPLAQSHATKHKIPIKYLEFISDAIIHVLHSKHPGDFGADAQGAMTKALELFRNDIAAKYKELGFQG
notes: myoglobin Mb, MW18800, from Sigma, used in place of Mt
B2: catalase: enzyme added to test whether peroxide is involved in the hydroxylation (protein, UniProt P00432 2-527, looked up)
Catalase: ADNRDPASDQMKHWKEQRAAQKPDVLTTGGGNPVGDKLNSLTVGPRGPLLVQDVVFTDEMAHFDRERIPERVVHAKGAGAFGYFEVTHDITRYSKAKVFEHIGKRTPIAVRFSTVAGESGSADTVRDPRGFAVKFYTEDGNWDLVGNNTPIFFIRDALLFPSFIHSQKRNPQTHLKDPDMVWDFWSLRPESLHQVSFLFSDRGIPDGHRHMNGYGSHTFKLVNANGEAVYCKFHYKTDQGIKNLSVEDAARLAHEDPDYGLRDLFNAIATGNYPSWTLYIQVMTFSEAEIFPFNPFDLTKVWPHGDYPLIPVGKLVLNRNPVNYFAEVEQLAFDPSNMPPGIEPSPDKMLQGRLFAYPDTHRHRLGPNYLQIPVNCPYRARVANYQRDGPMCMMDNQGGAPNYYPNSFSAPEHQPSALEHRTHFSGDVQRFNSANDDNVTQVRTFYLKVLNEEQRKRLCENIAGHLKDAQLFIQKKAVKNFSDVHPEYGSRIQALLDKYNEEKPKNAVHTYVQHGSHLSAREKANL

Columns and labels:
[1] = 1 uM methemoglobin, 2.0 Mm anisole, 0.6 mM sodium sulfite, pH 7.0, 37 degrees C
Experimental: The cleavage of anisole is a more demanding test of monooxygenase activity--see Galaris et. al., Arch. Biochem. Biophys., 1990, 281, 163 n., and Lindsay Smith et.al., J. Chem. Soc. Chem. Commun., 1982, 55. […] The reaction mixtures were preincubated for 5 mins at 37 degrees C. and then terminated by addition of ice-cold 20% trichloroacetic acid (for formaldehyde determination), or by addition of ice-cold diethyl ether and subsequent extraction with diethyl ether (for GC detection of the product phenol).

hemoglobin-Fe(II) = assay: Effect of added agents on the sulfite/heme protein catalysed hydroxylation; type: biochemical; conditions: agents in reasonable quantities
[2] = Aniline p-hydroxylation catalysed by myoglobin with sodium sulfite; type: biochemical; conditions: 0.1 mL of 6 mM sodium sulphite, otherwise as Example 1
Experimental: An experiment was conducted exactly as described above in connection with Example 1, but using myoglobin Mb, 28 mg, MW18800, from Sigma, in place of Mt, and an amount of 0.1 mL of 6 mM sodium sulphite. Otherwise conditions and quantities were the same.

Molecule | effect on the catalytic hydroxylation process (hemoglobin-Fe(II)) | also measured
methemoglobin |  | production of phenol and formaldehyde from anisole [1]: 140 pmol/min; kinetics of hydroxylation with respect to aniline (constant sodium sulfite concentration, 37 degrees C, pH 7.0): follows Michaelis-Menten kinetics; kinetic mechanism on variation of sodium sulfite concentration (sodium sulfite 0.05-0.40 mM, Lineweaver-Burk plots (FIG. 2)): ping-pong mechanism
superoxide dismutase: enzyme added to test whether superoxide is involved in the hydroxylation | no effect | 
CCO [ethanol] | not subject to inhibition | 
[C-]#[O+] [carbon monoxide] | inhibited | 
OC[C@@H](O)[C@@H](O)[C@H](O)[C@H](O)CO [mannitol] | not subject to inhibition | 
C[S+](C)[O-] [dimethylsulfoxide] | not subject to inhibition | 
B1 |  | monooxygenase activity (aniline to p-aminophenol) compared with Mt of Example 1 [2]: essentially similar result
B2 | no effect | 
